Experimental data from ChEMBL document CHEMBL5226390, “Synthesis and Structure-Activity Analysis of Icaritin Derivatives as Potential Tumor Growth Inhibitors of Hepatocellular Carcinoma Cells” (J Nat Prod, 2023).
Active and inactive are the calls of the source. The rule behind the calls is not given here.

Assays:
SMMC-7721 [1] = experiment: Induction of cell cycle arrest in human SMMC-7721 cells assessed as downregulation of Cdc2 protein expression at 2 to 8 uM incubated for 48 hrs by western blot analysis; assay type: functional, cell-based; details: dose 2-8 µM
HepG2 [2] = experiment: Induction of apoptosis in human HepG2 cells assessed as early apoptotic cells at 2 uM incubated for 48 hrs by AnnexinV-FITC/PI staining based flow cytometry (reference value: 3.41%); assay type: functional
SMMC-7721 [3] = experiment: Induction of apoptosis in human SMMC-7721 cells assessed as necrotic cells at 4 uM incubated for 48 hrs by AnnexinV-FITC/PI staining based flow cytometry (reference value: 12.3%); assay type: functional
SMMC-7721 [4] = experiment: Induction of cell cycle arrest in human SMMC-7721 cells assessed as accumulation of cells at G0/G1 phase at 2 uM incubated for 48 hrs by PI staining based flow cytometry (reference value: 59.57%); assay type: functional
HepG2 [5] = experiment: Induction of cell cycle arrest in human HepG2 cells assessed as accumulation of cells at G2/M phase at 4 uM incubated for 48 hrs by PI staining based flow cytometry (reference value: 17.89%); assay type: functional
HepG2 [6] = experiment: Induction of apoptosis in human HepG2 cells assessed as chromatin condensation and fragmentation at 2 to 8 uM incubated for 48 hrs by Hoechst 33258 staining based fluorescence microscopic analysis; assay type: functional, cell-based; details: dose 2-8 µM
SMMC-7721 [7] = experiment: Induction of apoptosis in human SMMC-7721 cells assessed as viable cells at 4 uM incubated for 48 hrs by AnnexinV-FITC/PI staining based flow cytometry (reference value: 85.1%); assay type: functional; details: read-out: Activity
HepG2 [8] = experiment: Induction of apoptosis in human HepG2 cells assessed as early apoptotic cells at 8 uM incubated for 48 hrs by AnnexinV-FITC/PI staining based flow cytometry (reference value: 3.41%); assay type: functional
HepG2 [9] = experiment: Induction of cell cycle arrest in human HepG2 cells assessed as accumulation of cells at G2/M phase at 8 uM incubated for 48 hrs by PI staining based flow cytometry (reference value: 17.89%); assay type: functional
SMMC-7721 [10] = experiment: Induction of apoptosis in human SMMC-7721 cells assessed as chromatin condensation and fragmentation at 2 to 8 uM incubated for 48 hrs by Hoechst 33258 staining based fluorescence microscopic analysis; assay type: functional, cell-based; details: dose 2-8 µM
SMMC-7721 [11] = experiment: Induction of apoptosis in human SMMC-7721 cells assessed as increase in number of detached cells with fewer cells at 2 to 8 uM incubated for 48 hrs by phase contrast microscopy; assay type: functional, cell-based; details: dose 2-8 µM
HepG2 [12] = experiment: Induction of cell cycle arrest in human HepG2 cells assessed as accumulation of cells at G0/G1 phase at 4 uM incubated for 48 hrs by PI staining based flow cytometry (reference value: 64.11%); assay type: functional
SMMC-7721 [13] = experiment: Induction of apoptosis in human SMMC-7721 cells assessed as early apoptotic cells at 4 uM incubated for 48 hrs by AnnexinV-FITC/PI staining based flow cytometry (reference value: 1.13%); assay type: functional
SMMC-7721 [14] = experiment: Induction of apoptosis in human SMMC-7721 cells assessed as late apoptotic cells at 8 uM incubated for 48 hrs by AnnexinV-FITC/PI staining based flow cytometry (reference value: 1.51%); assay type: functional
SMMC-7721 [15] = experiment: Induction of cell cycle arrest in human SMMC-7721 cells assessed as upregulation of p21 protein expression at 2 to 8 uM incubated for 48 hrs by western blot analysis; assay type: functional, cell-based; details: dose 2-8 µM
SMMC-7721 [16] = experiment: Induction of cell cycle arrest in human SMMC-7721 cells assessed as accumulation of cells at G2/M phase at 2 uM incubated for 48 hrs by PI staining based flow cytometry (reference value: 15.49%); assay type: functional
HepG2 [17] = experiment: Induction of apoptosis in human HepG2 cells assessed as viable cells at 8 uM incubated for 48 hrs by AnnexinV-FITC/PI staining based flow cytometry (reference value: 91.1%); assay type: functional; details: read-out: Activity
HepG2 [18] = experiment: Induction of apoptosis in human HepG2 cells assessed as increase in number of detached cells with fewer cells at 2 to 8 uM incubated for 48 hrs by phase contrast microscopy; assay type: functional, cell-based; details: dose 2-8 µM
SMMC-7721 [19] = experiment: Induction of apoptosis in human SMMC-7721 cells assessed as viable cells at 2 uM incubated for 48 hrs by AnnexinV-FITC/PI staining based flow cytometry (reference value: 85.1%); assay type: functional; details: read-out: Activity
HepG2 [20] = experiment: Induction of apoptosis in human HepG2 cells assessed as early apoptotic cells at 4 uM incubated for 48 hrs by AnnexinV-FITC/PI staining based flow cytometry (reference value: 3.41%); assay type: functional
SMMC-7721 [21] = experiment: Induction of cell cycle arrest in human SMMC-7721 cells assessed as accumulation of cells at G0/G1 phase at 8 uM incubated for 48 hrs by PI staining based flow cytometry (reference value: 59.57%); assay type: functional
HepG2 [22] = experiment: Induction of cell cycle arrest in human HepG2 cells assessed as downregulation of CDK4 protein expression at 2 to 8 uM incubated for 48 hrs by western blot analysis; assay type: functional, cell-based; details: dose 2-8 µM
SMMC-7721 [23] = experiment: Induction of apoptosis in human SMMC-7721 cells assessed as late apoptotic cells at 4 uM incubated for 48 hrs by AnnexinV-FITC/PI staining based flow cytometry (reference value: 1.51%); assay type: functional
HepG2 [24] = experiment: Induction of apoptosis in human HepG2 cells assessed as necrotic cells at 4 uM incubated for 48 hrs by AnnexinV-FITC/PI staining based flow cytometry (reference value: 2.22%); assay type: functional
SMMC-7721 [25] = experiment: Induction of cell cycle arrest in human SMMC-7721 cells assessed as accumulation of cells at G2/M phase at 4 uM incubated for 48 hrs by PI staining based flow cytometry (reference value: 15.49%); assay type: functional

COc1ccc(-c2oc3c(CC=C(C)C)c(OCCN4CCCC4)cc(O)c3c(=O)c2O[C@H]2O[C@H](C)[C@@H](O)[C@H](O)[C@@H]2O)cc1
Activity (SMMC-7721 [1]): Active | Activity (HepG2 [2]): 1.52% | Activity (SMMC-7721 [3]): 0.956% | Activity (SMMC-7721 [4]): 63.01% | Activity (HepG2 [5]): 10.7% | Activity (HepG2 [6]): Active | viability at 4 µM (SMMC-7721 [7]): 89.6% | Activity (HepG2 [8]): 3.42% | Activity (HepG2 [9]): 6.39% | Activity (SMMC-7721 [10]): Active | Activity (SMMC-7721 [11]): Active | Activity (HepG2 [12]): 80.03% | Activity (SMMC-7721 [13]): 2.54% | Activity (SMMC-7721 [14]): 8.46% | Activity (SMMC-7721 [15]): Active | Activity (SMMC-7721 [16]): 13.29% | viability at 8 µM (HepG2 [17]): 62.2% | Activity (HepG2 [18]): Active | viability at 2 µM (SMMC-7721 [19]): 89.4% | Activity (HepG2 [20]): 5.14% | Activity (SMMC-7721 [21]): 78.65% | Activity (HepG2 [22]): Active | Activity (SMMC-7721 [23]): 6.92% | Activity (HepG2 [24]): 3.21% | Activity (SMMC-7721 [25]): 14.83%
